In paper PMC9883482, “TPX2 enhances the transcription factor activation of PXR and enhances the resistance of hepatocellular carcinoma cells to antitumor drugs” (Cell Death & Disease, 2023):

Tests used:
[1] = system: HepG2 cells; assay: MTT cell survival examination; assay type: cell-based; conditions: Homo sapiens, HepG2, 48 h
Method: (§1) In the process of dissolving these pure drug powders, stirring, vortexing, and ultrasonic vibration were used to assist dissolution [17, 18]. After a drug was fully dissolved, Dulbecco’s modified Eagle’s medium (DMEM) without fetal bovine serum (FBS) was used to dilute the drug dissolved in DMSO. For doxorubicin, we used DMEM without FBS to dissolve the drug. When performing cell viability experiments (tetrazolium [MTT] assays), these drugs were diluted.
(§2) The antitumor activity of antitumor drugs injuring HCC cells was examined by using MTT assay. After culturing the HCC cells, transfection experiments were performed, and the cells were then seeded in 96-well cell culture plates (about 8000 cells per well). […] After the cells were treated with the drug for about 48 h, a dose of […] tetrazolium (MTT) reagent was added, and cells with the MTT reagent were incubated for 5 to 6 h. After incubation with the MTT was complete, all liquid in the 96-well cell culture plate was discarded, and about 100 μl of DMSO was added to each well to dissolve the cell samples. During the process of lysing the cell samples, the cell culture plate was shaken for 15 minutes to completely lyse the cells. After the lysis step was complete, the cell culture plate was centrifuged at 12,000 rpm at 4 °C, and the supernatant was collected for evaluation.
(§3) All statistical analyses in the presence work were performed using the GraphPad 8.0 (GraphPad Software Corporation, Armonk, NY, USA). […] For the survival analysis data, the survival curves were analyzed by the log-rank (Mantel–Cox) test to detect the P-value of the survival curve, the median survival time, and the 95% confidence interval (CI). For the co-relationship analysis, the data were analyzed by linear regression to determine the overall trend of a group of data points. […] If the slope was positive, the horizontal coordinate was positively related to the vertical coordinate, and if the slope was negative, the horizontal coordinate was negatively related to the vertical coordinate. For the multi-grouped data, the ordinary one-way analysis of variance (ANOVA) and multiple comparison methods were used. An ANOVA was used to examine whether any difference between groups could be detected. The multiple comparisons (t-test) was used to detect differences between pairs of data.

[2] = system: MHCC97-H cells; assay: MTT cell survival examination; assay type: cell-based; conditions: Homo sapiens, MHCC97H, 48 h
Method: as §1, §2, §3

[3] = system: MHCC97-L cells; assay: MTT cell survival examination; assay type: cell-based; conditions: Homo sapiens, MHCC97L, 48 h, median (95% CI)
Method: as §1, §2, §3

[4] = system: cyp3a4 and mdr-1 mRNA (PXR downstream genes); conditions: human
[5] = target: T1, PXR (Homo sapiens, UniProt O75469); conditions: in combination with rifampicin
T1 sequence (O75469 1-434): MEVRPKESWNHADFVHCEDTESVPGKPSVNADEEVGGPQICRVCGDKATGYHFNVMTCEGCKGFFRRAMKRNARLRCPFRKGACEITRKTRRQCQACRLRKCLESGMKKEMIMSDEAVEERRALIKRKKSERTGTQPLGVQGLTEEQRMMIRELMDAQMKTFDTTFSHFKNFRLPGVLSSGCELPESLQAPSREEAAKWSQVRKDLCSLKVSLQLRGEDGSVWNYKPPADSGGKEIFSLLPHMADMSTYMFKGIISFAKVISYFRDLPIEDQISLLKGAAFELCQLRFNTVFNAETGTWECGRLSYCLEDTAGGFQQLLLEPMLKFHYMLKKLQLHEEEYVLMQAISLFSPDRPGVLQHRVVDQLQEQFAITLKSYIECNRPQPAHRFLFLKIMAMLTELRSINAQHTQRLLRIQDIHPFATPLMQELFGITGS

[6] = HepG2, Control, median (95% CI)
[7] = HepG2, TPX2 overexpression, median (95% CI)

Compound	IC50 [1, 6]	IC50 [1, 7]	IC50 ([1]; HepG2, siTPX2, median (95% CI))	IC50 ([2]; Control, median (95% CI))	IC50 ([2]; siTPX2, median (95% CI))	IC50 ([3]; Control)	IC50 ([3]; TPX2 overexpression)	effect on rifampicin- and TPX2-induced transcription of PXR downstream genes (mRNA levels) [4]	effect on TPX2/rifampicin-driven PXR recruitment to cyp3a4 promoter or enhancer [5]
COc1cc2nccc(Oc3ccc(NC(=O)C4(C(=O)Nc5ccc(F)cc5)CC4)cc3)c2cc1OC [cabozantinib]	880 nM	4780 nM	390 nM	760 nM	260 nM	1470 nM	5030 nM		
COc1cccc2c1C(=O)c1c(O)c3c(c(O)c1C2=O)C[C@@](O)(C(=O)CO)C[C@@H]3O[C@H]1C[C@H](N)[C@H](O)[C@H](C)O1 [doxorubicin]	330 nM	1590 nM	50 nM	200 nM	60 nM	250 nM	820 nM		
COc1cc([C@@H]2c3cc4c(cc3[C@@H](O[C@@H]3O[C@@H]5CO[C@@H](C)O[C@H]5[C@H](O)[C@H]3O)[C@H]3COC(=O)[C@H]23)OCO4)cc(OC)c1O [etoposide]	460 nM	1930 nM	180 nM	250 nM	100 nM	380 nM	1320 nM		
CCc1c2c(nc3ccc(OC(=O)N4CCC(N5CCCCC5)CC4)cc13)-c1cc3c(c(=O)n1C2)COC(=O)[C@]3(O)CC [irinotecan]	300 nM	820 nM	100 nM	520 nM	160 nM	430 nM	970 nM		
CC(=O)N1CCN(c2ccc(OCC3COC(Cn4ccnc4)(c4ccc(Cl)cc4Cl)O3)cc2)CC1 (stereo not drawn) [ketoconazole]								almost blocked the effects of rifampicin and TPX2	
COc1cc2nccc(Oc3ccc(NC(=O)NC4CC4)c(Cl)c3)c2cc1C(N)=O [lenvatinib]	1300 nM	5890 nM	330 nM	1070 nM	500 nM	1940 nM	5730 nM		
CC(=O)O[C@H]1C(=O)[C@@]2(C)[C@H]([C@H](OC(=O)c3ccccc3)[C@]3(O)C[C@H](OC(=O)[C@H](O)[C@@H](NC(=O)c4ccccc4)c4ccccc4)C(C)=C1C3(C)C)[C@]1(OC(C)=O)CO[C@@H]1C[C@@H]2O [paclitaxel]	14.8 nM	240 nM	8.31 nM	12.7 nM	4.2 nM	22 nM	150 nM		
CNC(=O)c1cc(Oc2ccc(NC(=O)Nc3ccc(Cl)c(C(F)(F)F)c3)c(F)c2)ccn1 [regorafenib]	1010 nM	3650 nM	620 nM	990 nM	750 nM	1500 nM	4930 nM		
CC[C@]1(O)C[C@H]2CN(CCc3c([nH]c4ccccc34)[C@@](C(=O)OC)(c3cc4c(cc3OC)N(C=O)[C@H]3[C@@](O)(C(=O)OC)[C@H](OC(C)=O)[C@]5(CC)C=CCN6CC[C@]43[C@@H]65)C2)C1 [vincristine]									almost blocked
